Laboratory results published in ChEMBL document CHEMBL1275453, “Resistance trends of the Bacteroides fragilis group over a 10-year period, 1997 to 2006, in Madrid, Spain” (2008).
Converted amounts (≈) assume the structure as drawn.

What was measured:
Type in all cases: functional
[1] = tested on: Phocaeicola vulgatus; experiment: Antibacterial activity against Bacteroides vulgatus assessed as percent resistant isolates by agar dilution method
[2] = tested on: Bacteroides thetaiotaomicron; experiment: Antibacterial activity against Bacteroides thetaiotaomicron assessed as percent resistant isolates by agar dilution method
[3] = tested on: Phocaeicola vulgatus; experiment: Antibacterial activity against Bacteroides vulgatus isolate by agar dilution method
[4] = tested on: Parabacteroides merdae; experiment: Antibacterial activity against Bacteroides merdae isolate by agar dilution method
[5] = tested on: Bacteroides thetaiotaomicron; experiment: Antibacterial activity against Bacteroides thetaiotaomicron isolate by agar dilution method
[6] = tested on: Bacteroides ovatus; experiment: Antibacterial activity against Bacteroides ovatus assessed as percent resistant isolates by agar dilution method
[7] = tested on: Bacteroides uniformis; experiment: Antibacterial activity against Bacteroides uniformis isolate by agar dilution method
[8] = tested on: Bacteroides fragilis; experiment: Antibacterial activity against Bacteroides fragilis isolate by agar dilution method
[9] = tested on: Parabacteroides distasonis; experiment: Antibacterial activity against Bacteroides distasonis isolate by agar dilution method
[10] = tested on: Bacteroides eggerthii; experiment: Antibacterial activity against Bacteroides eggerthii isolate by agar dilution method
[11] = tested on: Bacteroides sp.; experiment: Antibacterial activity against Bacteroides spp. isolate by agar dilution method
[12] = tested on: Bacteroides ovatus; experiment: Antibacterial activity against Bacteroides ovatus isolate by agar dilution method
[13] = tested on: Bacteroides caccae; experiment: Antibacterial activity against Bacteroides caccae isolate by agar dilution method
[14] = tested on: Bacteroides stercoris; experiment: Antibacterial activity against Bacteroides stercoris isolate by agar dilution method
[15] = tested on: Parabacteroides distasonis; experiment: Antibacterial activity against Bacteroides distasonis assessed as percent resistant isolates by agar dilution method
[16] = tested on: Bacteroides fragilis; experiment: Antibacterial activity against Bacteroides fragilis assessed as percent resistant isolates by agar dilution method
[17] = tested on: Bacteroides caccae; experiment: Antibacterial activity against Bacteroides caccae assessed as percent resistant isolates by agar dilution method
[18] = tested on: Bacteroides uniformis; experiment: Antibacterial activity against Bacteroides uniformis assessed as percent resistant isolates by agar dilution method
[19] = tested on: Bacteroides stercoris; experiment: Antibacterial activity against Bacteroides stercoris assessed as percent resistant isolates by agar dilution method; conditions: pooled result: one value given for 4 cell lines, strains, targets or settings
[20] = tested on: Parabacteroides merdae; experiment: Antibacterial activity against Bacteroides merdae assessed as percent resistant isolates by agar dilution method in presence of Tazobactam
[21] = tested on: Bacteroides sp.; experiment: Antibacterial activity against Bacteroides spp. isolate by agar dilution method in presence of Tazobactam
[22] = tested on: Bacteroides fragilis; experiment: Antibacterial activity against Bacteroides fragilis isolate by agar dilution method in presence of Tazobactam
[23] = tested on: Bacteroides thetaiotaomicron; experiment: Antibacterial activity against Bacteroides thetaiotaomicron isolate by agar dilution method in presence of Tazobactam
[24] = tested on: Bacteroides eggerthii; experiment: Antibacterial activity against Bacteroides eggerthii assessed as percent resistant isolates by agar dilution method in presence of Tazobactam
[25] = tested on: Bacteroides caccae; experiment: Antibacterial activity against Bacteroides caccae assessed as percent resistant isolates by agar dilution method in presence of Tazobactam
[26] = tested on: Bacteroides fragilis; experiment: Antibacterial activity against Bacteroides fragilis assessed as percent resistant isolates by agar dilution method in presence of Tazobactam
[27] = tested on: Bacteroides ovatus; experiment: Antibacterial activity against Bacteroides ovatus assessed as percent resistant isolates by agar dilution method in presence of Tazobactam
[28] = tested on: Parabacteroides merdae; experiment: Antibacterial activity against Bacteroides merdae isolate by agar dilution method in presence of Tazobactam
[29] = tested on: Bacteroides ovatus; experiment: Antibacterial activity against Bacteroides ovatus isolate by agar dilution method in presence of Tazobactam
[30] = tested on: Bacteroides eggerthii; experiment: Antibacterial activity against Bacteroides eggerthii isolate by agar dilution method in presence of Tazobactam
[31] = tested on: Bacteroides uniformis; experiment: Antibacterial activity against Bacteroides uniformis assessed as percent resistant isolates by agar dilution method in presence of Tazobactam
[32] = tested on: Bacteroides stercoris; experiment: Antibacterial activity against Bacteroides stercoris assessed as percent resistant isolates by agar dilution method in presence of Tazobactam
[33] = tested on: Phocaeicola vulgatus; experiment: Antibacterial activity against Bacteroides vulgatus isolate by agar dilution method in presence of Tazobactam
[34] = tested on: Parabacteroides distasonis; experiment: Antibacterial activity against Bacteroides distasonis isolate by agar dilution method in presence of Tazobactam
[35] = tested on: Bacteroides thetaiotaomicron; experiment: Antibacterial activity against Bacteroides thetaiotaomicron assessed as percent resistant isolates by agar dilution me in presence of Tazobactam thod
[36] = tested on: Bacteroides sp.; experiment: Antibacterial activity against Bacteroides spp. assessed as percent resistant isolates by agar dilution method in presence of Tazobactam
[37] = tested on: Bacteroides caccae; experiment: Antibacterial activity against Bacteroides caccae isolate by agar dilution method in presence of Tazobactam
[38] = tested on: Bacteroides uniformis; experiment: Antibacterial activity against Bacteroides uniformis isolate by agar dilution method in presence of Tazobactam
[39] = tested on: Bacteroides stercoris; experiment: Antibacterial activity against Bacteroides stercoris isolate by agar dilution method in presence of Tazobactam
[40] = tested on: Phocaeicola vulgatus; experiment: Antibacterial activity against Bacteroides vulgatus assessed as percent resistant isolates by agar dilution method in presence of Tazobactam
[41] = tested on: Parabacteroides distasonis; experiment: Antibacterial activity against Bacteroides distasonis assessed as percent resistant isolates by agar dilution method in presence of Tazobactam

For C[C@@H](O)[C@H]1C(=O)N2C(C(=O)O)=C(SCCNC=N)C[C@H]12 [IMIPENEM ANHYDROUS], the Activity [1] was 0%, the Activity [2] was 0.5% and the MIC50 [3] was 0.5 µg/mL (≈ 1.67 µM). It also gave an MIC90 [3] of 2 µg/mL (≈ 6.68 µM), an MIC50 [4] of 0.25 µg/mL (≈ 0.835 µM) and an MIC90 [4] of 2 µg/mL (≈ 6.68 µM). The MIC50 [5] was 0.5 µg/mL (≈ 1.67 µM), the MIC90 [5] was 2 µg/mL (≈ 6.68 µM) and the Activity [6] was 0%. It also gave an MIC50 [7] of 0.25 µg/mL (≈ 0.835 µM), an MIC90 [7] of 2 µg/mL (≈ 6.68 µM) and an MIC50 [8] of 0.25 µg/mL (≈ 0.835 µM). For the same compound, the MIC90 [8] was 1 µg/mL (≈ 3.34 µM), the MIC50 [9] was 1 µg/mL (≈ 3.34 µM) and the MIC90 [9] was 1 µg/mL (≈ 3.34 µM). For the same compound, the MIC50 [10] was 0.25 µg/mL (≈ 0.835 µM), the MIC90 [10] was 2 µg/mL (≈ 6.68 µM) and the MIC50 [11] was 0.25 µg/mL (≈ 0.835 µM). The MIC90 [11] was 2 µg/mL (≈ 6.68 µM), the MIC50 [12] was 0.25 µg/mL (≈ 0.835 µM) and the MIC90 [12] was 2 µg/mL (≈ 6.68 µM). For the same compound, the MIC50 [13] was 0.5 µg/mL (≈ 1.67 µM), the MIC90 [13] was 2 µg/mL (≈ 6.68 µM) and the MIC50 [14] was 0.25 µg/mL (≈ 0.835 µM). The MIC90 [14] was 2 µg/mL (≈ 6.68 µM), the Activity [15] was 0% and the Activity [16] was 0.6%. It also gave an Activity [17] of 0%, an Activity [18] of 0% and an Activity [19] of 0%.

Work on Cc1ncc([N+](=O)[O-])n1CCO [METRONIDAZOLE] yielded an Activity [1] of 0%, an Activity [2] of 0% and an MIC50 [3] of 1 µg/mL (≈ 5.84 µM). The MIC90 [3] was 2 µg/mL (≈ 11.7 µM), the MIC50 [4] was 0.5 µg/mL (≈ 2.92 µM) and the MIC90 [4] was 2 µg/mL (≈ 11.7 µM). The MIC50 [5] was 1 µg/mL (≈ 5.84 µM), the MIC90 [5] was 2 µg/mL (≈ 11.7 µM) and the Activity [6] was 0%. It also gave an MIC50 [7] of 1 µg/mL (≈ 5.84 µM), an MIC90 [7] of 2 µg/mL (≈ 11.7 µM) and an MIC50 [8] of 1 µg/mL (≈ 5.84 µM). It also gave an MIC90 [8] of 2 µg/mL (≈ 11.7 µM), an MIC50 [9] of 1 µg/mL (≈ 5.84 µM) and an MIC90 [9] of 2 µg/mL (≈ 11.7 µM). The MIC50 [10] was 0.5 µg/mL (≈ 2.92 µM), the MIC90 [10] was 2 µg/mL (≈ 11.7 µM) and the MIC50 [11] was 0.5 µg/mL (≈ 2.92 µM). For the same compound, the MIC90 [11] was 2 µg/mL (≈ 11.7 µM), the MIC50 [12] was 1 µg/mL (≈ 5.84 µM) and the MIC90 [12] was 2 µg/mL (≈ 11.7 µM). For the same compound, the MIC50 [13] was 1 µg/mL (≈ 5.84 µM), the MIC90 [13] was 2 µg/mL (≈ 11.7 µM) and the MIC50 [14] was 0.5 µg/mL (≈ 2.92 µM). It also gave an MIC90 [14] of 2 µg/mL (≈ 11.7 µM), an Activity [15] of 0% and an Activity [16] of 0%. It also gave an Activity [17] of 0%, an Activity [18] of 0% and an Activity [19] of 0%.

CCN1CCN(C(=O)N[C@@H](C(=O)N[C@@H]2C(=O)N3[C@@H]2SC(C)(C)[C@@H]3C(=O)O)c2ccccc2)C(=O)C1=O [PIPERACILLIN] was tested, and the Activity [20] was 0%, the MIC50 [21] was 8 µg/mL and the MIC90 [21] was 32 µg/mL. It also gave an MIC50 [22] of 1 µg/mL, an MIC90 [22] of 8 µg/mL and an MIC50 [23] of 16 µg/mL. For the same compound, the MIC90 [23] was 32 µg/mL, the Activity [24] was 0% and the Activity [25] was 2.2%. The Activity [26] was 0.5%, the Activity [27] was 0% and the MIC50 [28] was 8 µg/mL. For the same compound, the MIC90 [28] was 32 µg/mL, the MIC50 [29] was 8 µg/mL and the MIC90 [29] was 16 µg/mL. The MIC50 [30] was 8 µg/mL, the MIC90 [30] was 32 µg/mL and the Activity [31] was 0%. For the same compound, the Activity [32] was 0%, the MIC50 [33] was 8 µg/mL and the MIC90 [33] was 32 µg/mL. For the same compound, the MIC50 [34] was 16 µg/mL, the MIC90 [34] was 16 µg/mL and the Activity [35] was 3.3%. It also gave an Activity [36] of 0%, an MIC50 [37] of 8 µg/mL and an MIC90 [37] of 32 µg/mL. For the same compound, the MIC50 [38] was 4 µg/mL, the MIC90 [38] was 16 µg/mL and the MIC50 [39] was 8 µg/mL. It also gave an MIC90 [39] of 32 µg/mL, an Activity [40] of 0% and an Activity [41] of 0%.

CN(C)c1cc(NC(=O)CNC(C)(C)C)c(O)c2c1C[C@H]1C[C@H]3[C@H](N(C)C)C(O)=C(C(N)=O)C(=O)[C@@]3(O)C(O)=C1C2=O [TIGECYCLINE] showed an Activity [1] of 6.1%, an Activity [2] of 7.5% and an MIC50 [3] of 0.5 µg/mL (≈ 0.854 µM). It also gave an MIC90 [3] of 8 µg/mL (≈ 13.7 µM), an MIC50 [4] of 1 µg/mL (≈ 1.71 µM) and an MIC90 [4] of 8 µg/mL (≈ 13.7 µM). The MIC50 [5] was 1 µg/mL (≈ 1.71 µM), the MIC90 [5] was 8 µg/mL (≈ 13.7 µM) and the Activity [6] was 7.2%. The MIC50 [7] was 1 µg/mL (≈ 1.71 µM), the MIC90 [7] was 8 µg/mL (≈ 13.7 µM) and the MIC50 [8] was 1 µg/mL (≈ 1.71 µM). For the same compound, the MIC90 [8] was 8 µg/mL (≈ 13.7 µM), the MIC50 [9] was 2 µg/mL (≈ 3.41 µM) and the MIC90 [9] was 8 µg/mL (≈ 13.7 µM). It also gave an MIC50 [10] of 1 µg/mL (≈ 1.71 µM), an MIC90 [10] of 8 µg/mL (≈ 13.7 µM) and an MIC50 [11] of 1 µg/mL (≈ 1.71 µM). For the same compound, the MIC90 [11] was 8 µg/mL (≈ 13.7 µM), the MIC50 [12] was 2 µg/mL (≈ 3.41 µM) and the MIC90 [12] was 8 µg/mL (≈ 13.7 µM). It also gave an MIC50 [13] of 1 µg/mL (≈ 1.71 µM), an MIC90 [13] of 16 µg/mL (≈ 27.3 µM) and an MIC50 [14] of 1 µg/mL (≈ 1.71 µM). It also gave an MIC90 [14] of 8 µg/mL (≈ 13.7 µM), an Activity [15] of 8.3% and an Activity [16] of 6.5%. It also gave an Activity [17] of 16.1%, an Activity [18] of 9.1% and an Activity [19] of 10.5%.
